Data on two compounds can be found in patent US20210087548A1, “Compositions and Methods for Inducing Protein Function” (priority 2017, published 2021).

One assay deals with HCV genotype 1a NS3 Q80K. To be noted: in vitro replication assay; cited from earlier work.
The next assay relates to HCV genotype 1a NS3 T54A. To be noted: in vitro replication assay; cited from earlier work.
Assay [1] deals with HCV genotype 1a NS3 D168Y. To be noted: in vitro replication assay; cited from earlier work.
Another assay concerns HCV genotype 1a NS3 Wt. To be noted: in vitro replication assay; cited from earlier work.
Another assay relates to human VEGFA locus. In kind it is cell-based. To be noted: for VEGF concentration, empty vector control cells in respective drug (average): HEK293A, 48 hrs, average of 3 independent experiments.
The test system of assay [2] is HCV genotype 1a NS3 S122G. To be noted: in vitro replication assay; cited from earlier work.
The subject of the next assay is HCV genotype 1a NS3 V36M. To be noted: in vitro replication assay; cited from earlier work.
The subject of the next assay is HCV genotype 1a NS3 F43L. To be noted: in vitro replication assay; cited from earlier work.
The test system of assay [3] is HCV genotype 1a NS3 S122R. To be noted: in vitro replication assay; cited from earlier work.

Turning to `C=C[C@@H]1C[C@]1(NC(=O)[C@@H]1C[C@@H](Oc2ncc(OC)c3ccc(Cl)cc23)CN1C(=O)[C@@H](NC(=O)OC(C)(C)C)C(C)(C)C)C(=O)NS(=O)(=O)C1CC1` [ASV, asunaprevir], the EC50 (in general, the midpoint of the concentration-response curve) in the assay on HCV genotype 1a NS3 Q80K is 2.5 nM; in the assay with HCV genotype 1a NS3 T54A, 0.33 nM; in assay [1] it was 473 nM; with HCV genotype 1a NS3 Wt it was 0.76 nM; in [2] it was 0.65 nM; in the assay on HCV genotype 1a NS3 V36M, 1.5 nM. Moreover, the concentration giving a half-maximal response (EC50) was 2.7 nM in the assay on HCV genotype 1a NS3 F43L and 2.6 nM in [3]. For the same compound, the “VEGF amounts in the culture medium” value in the assay with human VEGFA locus (HEK293A co-transfected with ZF-StaPL(ti)-tdRFP-KRAB and ZF-StaPL(ai)-YFP-VPR) is listed as “increased”. In addition, the “VEGF concentration, empty vector control cells in respective drug (average)” value with human VEGFA locus is on record as 673 pg/mL.
`CCC[C@H](NC(=O)[C@@H]1[C@H]2CCC[C@H]2CN1C(=O)[C@@H](NC(=O)[C@@H](NC(=O)c1cnccn1)C1CCCCC1)C(C)(C)C)C(=O)C(=O)NC1CC1` [TPV, telaprevir]: in the assay with human VEGFA locus, the “VEGF concentration, empty vector control cells in respective drug (average)” value worked out at 930 pg/mL.
